Data from ChEMBL document CHEMBL4024706 (Eur J Med Chem, 2017).

Tests used:
[1] = system: SKM-1; test: Growth inhibition of human SKM1 cells; assay type: functional; conditions: Homo sapiens, SKM-1
[2] = system: Tyrosine-protein kinase ABL1 (Homo sapiens), P00519 [Q252H]; test: Inhibition of human non-phosphorylated ABL1 Q252H mutant (S229 to K512 residues) expressed in mammalian expression system assessed as residual activity at 1 uM by Kinomescan method relative to control
[3] = system: Tyrosine-protein kinase ABL1 (Homo sapiens), P00519 [Y253F]; test: Inhibition of human phosphorylated ABL1 Y253F mutant (S229 to K512 residues) expressed in mammalian expression system assessed as residual activity at 1 uM by Kinomescan method relative to control
[4] = molecular target: Ankyrin repeat and protein kinase domain-containing protein 1 (Homo sapiens) (UniProt Q8NFD2); test: Inhibition of wild-type human partial length ANKK1 (M1 to A305 residues) expressed in mammalian expression system assessed as residual activity at 1 uM by Kinomescan method relative to control
Ankyrin repeat and protein kinase domain-containing protein 1 (Homo sapiens), sequence (Q8NFD2 whole entry, the tested form may be a part): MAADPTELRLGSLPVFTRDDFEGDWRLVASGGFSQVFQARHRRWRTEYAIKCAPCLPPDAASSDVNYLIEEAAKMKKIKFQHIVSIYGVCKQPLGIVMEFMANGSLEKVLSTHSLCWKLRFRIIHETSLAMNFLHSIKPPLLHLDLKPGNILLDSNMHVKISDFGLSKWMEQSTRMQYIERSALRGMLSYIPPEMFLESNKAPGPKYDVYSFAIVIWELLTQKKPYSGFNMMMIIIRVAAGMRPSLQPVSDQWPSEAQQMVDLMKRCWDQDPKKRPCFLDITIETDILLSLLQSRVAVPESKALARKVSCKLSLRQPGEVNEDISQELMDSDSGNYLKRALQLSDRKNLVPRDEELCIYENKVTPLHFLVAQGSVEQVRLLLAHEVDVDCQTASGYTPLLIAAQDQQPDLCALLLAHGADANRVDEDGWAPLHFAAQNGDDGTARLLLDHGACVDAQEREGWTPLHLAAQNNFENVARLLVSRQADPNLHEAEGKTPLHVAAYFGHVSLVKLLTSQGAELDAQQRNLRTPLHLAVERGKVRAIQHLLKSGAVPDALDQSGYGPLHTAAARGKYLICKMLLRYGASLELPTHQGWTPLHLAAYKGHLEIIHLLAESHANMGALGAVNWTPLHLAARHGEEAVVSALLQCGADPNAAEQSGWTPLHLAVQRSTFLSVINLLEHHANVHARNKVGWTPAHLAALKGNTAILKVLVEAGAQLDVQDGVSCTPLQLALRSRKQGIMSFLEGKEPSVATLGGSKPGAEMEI

[5] = molecular target: Calcium/calmodulin-dependent protein kinase type II subunit beta (Homo sapiens) (UniProt Q13554); test: Inhibition of wild-type human partial length CAMK2B (M1 to Q380 residues) expressed in bacterial expression system assessed as residual activity at 1 uM by Kinomescan method relative to control
[6] = molecular target: Cyclin-dependent kinase 8 (Homo sapiens) (UniProt P49336); test: Inhibition of wild-type human partial length CDK8 (M1 to T360 residues) expressed in bacterial expression system assessed as residual activity at 1 uM by Kinomescan method relative to control
[7] = molecular target: Casein kinase I isoform gamma-2 (Homo sapiens) (UniProt P78368); test: Inhibition of wild-type human full length CSNK1G2 (M1 to K415 residues) expressed in bacterial expression system assessed as residual activity at 1 uM by Kinomescan method relative to control
[8] = molecular target: Serine/threonine-protein kinase DCLK2 (Homo sapiens) (UniProt Q8N568); test: Inhibition of wild-type human partial length DCAMKL2 (K273 to V664 residues) expressed in bacterial expression system assessed as residual activity at 1 uM by Kinomescan method relative to control
[9] = molecular target: Myotonin-protein kinase (Homo sapiens) (UniProt Q09013); test: Inhibition of wild-type human partial length DMPK (V47 to V415 residues) expressed in bacterial expression system assessed as residual activity at 1 uM by Kinomescan method relative to control
[10] = molecular target: Serine/threonine-protein kinase 17A (Homo sapiens) (UniProt Q9UEE5); test: Inhibition of wild-type human partial length DRAK1 (R32 to E363 residues) expressed in bacterial expression system assessed as residual activity at 1 uM by Kinomescan method relative to control
Serine/threonine-protein kinase 17A (Homo sapiens), sequence (Q9UEE5 whole entry, the tested form may be a part): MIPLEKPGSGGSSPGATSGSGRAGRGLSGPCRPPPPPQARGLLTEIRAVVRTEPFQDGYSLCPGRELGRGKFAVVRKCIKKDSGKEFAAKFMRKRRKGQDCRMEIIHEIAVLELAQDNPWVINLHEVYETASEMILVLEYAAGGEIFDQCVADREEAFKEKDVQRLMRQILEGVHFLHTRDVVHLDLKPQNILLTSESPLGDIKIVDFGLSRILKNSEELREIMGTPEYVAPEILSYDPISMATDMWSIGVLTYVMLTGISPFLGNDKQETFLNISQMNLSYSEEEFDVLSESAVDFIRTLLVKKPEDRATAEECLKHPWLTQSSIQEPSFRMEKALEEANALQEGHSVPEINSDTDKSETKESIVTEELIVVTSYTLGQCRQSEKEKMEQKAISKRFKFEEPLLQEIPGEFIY

[11] = system: Epidermal growth factor receptor (Homo sapiens), P00533 [G719C]; test: Inhibition of human partial length EGFR G719C mutant (R669 to V1011 residues) expressed in bacterial expression system assessed as residual activity at 1 uM by Kinomescan method relative to control
[12] = molecular target: Mitogen-activated protein kinase 6 (Homo sapiens) (UniProt Q16659); test: Inhibition of wild-type human partial length ERK3 (M1 to P413 residues) expressed in bacterial expression system assessed as residual activity at 1 uM by Kinomescan method relative to control
[13] = molecular target: Serine/threonine-protein kinase/endoribonuclease IRE1 (Homo sapiens) (UniProt O75460); test: Inhibition of wild-type human partial length ERN1 (S551 to E852 residues) expressed in mammalian expression system assessed as residual activity at 1 uM by Kinomescan method relative to control
Serine/threonine-protein kinase/endoribonuclease IRE1 (Homo sapiens), sequence (O75460 19-977 limits assumed): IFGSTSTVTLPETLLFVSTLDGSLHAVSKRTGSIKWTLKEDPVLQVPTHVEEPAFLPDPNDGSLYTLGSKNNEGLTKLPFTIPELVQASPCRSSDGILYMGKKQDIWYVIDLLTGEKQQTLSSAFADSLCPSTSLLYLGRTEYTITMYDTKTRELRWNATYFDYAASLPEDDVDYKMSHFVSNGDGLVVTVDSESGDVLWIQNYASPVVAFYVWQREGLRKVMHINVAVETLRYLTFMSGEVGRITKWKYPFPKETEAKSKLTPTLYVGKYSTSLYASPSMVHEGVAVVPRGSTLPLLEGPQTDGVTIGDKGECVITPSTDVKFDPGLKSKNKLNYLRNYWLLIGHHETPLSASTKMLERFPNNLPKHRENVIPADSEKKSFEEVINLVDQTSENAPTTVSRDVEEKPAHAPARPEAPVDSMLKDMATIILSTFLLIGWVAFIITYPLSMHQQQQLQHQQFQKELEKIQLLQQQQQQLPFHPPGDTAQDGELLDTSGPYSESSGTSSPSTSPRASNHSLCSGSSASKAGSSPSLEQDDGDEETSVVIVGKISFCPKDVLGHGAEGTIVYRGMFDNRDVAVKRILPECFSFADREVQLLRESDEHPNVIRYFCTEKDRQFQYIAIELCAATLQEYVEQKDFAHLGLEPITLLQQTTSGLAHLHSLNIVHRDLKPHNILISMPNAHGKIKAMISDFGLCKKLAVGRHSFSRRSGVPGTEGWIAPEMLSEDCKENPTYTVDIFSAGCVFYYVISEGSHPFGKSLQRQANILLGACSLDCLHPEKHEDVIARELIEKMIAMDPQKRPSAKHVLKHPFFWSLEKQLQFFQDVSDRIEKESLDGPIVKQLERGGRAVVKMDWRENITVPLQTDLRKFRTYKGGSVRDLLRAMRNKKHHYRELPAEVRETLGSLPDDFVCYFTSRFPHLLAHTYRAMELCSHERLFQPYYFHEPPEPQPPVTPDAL

[14] = molecular target: Cyclin-G-associated kinase (Homo sapiens) (UniProt O14976); test: Inhibition of wild-type human partial length GAK (G13 to Y338 residues) expressed in bacterial expression system assessed as residual activity at 1 uM by Kinomescan method relative to control
[15] = molecular target: Homeodomain-interacting protein kinase 2 (Homo sapiens) (UniProt Q9H2X6); test: Inhibition of wild-type human partial length HIPK2 (M153 to S564 residues) expressed in mammalian expression system assessed as residual activity at 1 uM by Kinomescan method relative to control
[16] = system: Mast/stem cell growth factor receptor Kit (Homo sapiens), P10721 [UNDEFINED MUTATION]; test: Inhibition of human partial length KIT V559D/V654 double mutant (Y545 to D952 residues) expressed in bacterial expression system assessed as residual activity at 1 uM by Kinomescan method relative to control
Mast/stem cell growth factor receptor Kit (Homo sapiens), P10721 [UNDEFINED MUTATION], sequence (P10721 whole entry, looked up, stated change not applied, the tested form may be a part): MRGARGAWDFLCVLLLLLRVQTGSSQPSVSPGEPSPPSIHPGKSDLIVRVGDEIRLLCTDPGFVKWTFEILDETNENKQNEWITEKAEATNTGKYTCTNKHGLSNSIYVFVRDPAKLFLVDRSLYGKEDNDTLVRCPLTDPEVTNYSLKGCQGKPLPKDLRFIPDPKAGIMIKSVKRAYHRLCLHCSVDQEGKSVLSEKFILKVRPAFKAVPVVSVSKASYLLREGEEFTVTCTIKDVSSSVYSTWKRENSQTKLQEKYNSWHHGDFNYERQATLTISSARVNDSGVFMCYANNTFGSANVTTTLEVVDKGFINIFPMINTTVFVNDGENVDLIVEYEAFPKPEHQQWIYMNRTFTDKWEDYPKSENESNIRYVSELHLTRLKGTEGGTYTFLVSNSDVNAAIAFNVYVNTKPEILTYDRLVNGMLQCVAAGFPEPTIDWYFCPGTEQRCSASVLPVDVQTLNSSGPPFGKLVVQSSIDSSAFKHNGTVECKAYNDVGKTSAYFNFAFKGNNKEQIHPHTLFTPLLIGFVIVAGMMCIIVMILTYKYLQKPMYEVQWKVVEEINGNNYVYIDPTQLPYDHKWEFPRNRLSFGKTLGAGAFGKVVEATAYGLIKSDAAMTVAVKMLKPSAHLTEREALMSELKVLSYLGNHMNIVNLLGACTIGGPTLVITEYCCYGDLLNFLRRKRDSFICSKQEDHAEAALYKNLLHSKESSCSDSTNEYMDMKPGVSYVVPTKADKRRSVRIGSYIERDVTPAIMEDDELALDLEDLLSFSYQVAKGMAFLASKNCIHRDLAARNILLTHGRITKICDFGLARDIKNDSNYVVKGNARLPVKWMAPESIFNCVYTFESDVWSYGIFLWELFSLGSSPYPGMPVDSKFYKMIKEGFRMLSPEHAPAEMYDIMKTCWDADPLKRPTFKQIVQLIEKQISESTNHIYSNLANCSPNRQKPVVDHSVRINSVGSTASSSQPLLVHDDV

[17] = molecular target: MAP kinase-activated protein kinase 5 (Homo sapiens) (UniProt Q8IW41); test: Inhibition of wild-type human partial length MAPKAPK5 (M1 to D322 residues) expressed in mammalian expression system assessed as residual activity at 1 uM by Kinomescan method relative to control
[18] = molecular target: MAP/microtubule affinity-regulating kinase 4 (Homo sapiens) (UniProt Q96L34); test: Inhibition of wild-type human partial length MARK4 (K29 to G340 residues) expressed in bacterial expression system assessed as residual activity at 1 uM by Kinomescan method relative to control
[19] = molecular target: Dual specificity mitogen-activated protein kinase kinase 3 (Homo sapiens) (UniProt P46734); test: Inhibition of wild-type human full length MEK3 (M1 to S318 residues) expressed in mammalian expression system assessed as residual activity at 1 uM by Kinomescan method relative to control
[20] = molecular target: Serine/threonine-protein kinase 24 (Homo sapiens) (UniProt Q9Y6E0); test: Inhibition of wild-type human partial length MST3 (A30 to S311 residues) expressed in bacterial expression system assessed as residual activity at 1 uM by Kinomescan method relative to control
[21] = molecular target: Muscle, skeletal receptor tyrosine-protein kinase (Homo sapiens) (UniProt O15146); test: Inhibition of wild-type human partial length MUSK (M553 to V869 residues) expressed in bacterial expression system assessed as residual activity at 1 uM by Kinomescan method relative to control
Muscle, skeletal receptor tyrosine-protein kinase (Homo sapiens), sequence (O15146 whole entry, the tested form may be a part): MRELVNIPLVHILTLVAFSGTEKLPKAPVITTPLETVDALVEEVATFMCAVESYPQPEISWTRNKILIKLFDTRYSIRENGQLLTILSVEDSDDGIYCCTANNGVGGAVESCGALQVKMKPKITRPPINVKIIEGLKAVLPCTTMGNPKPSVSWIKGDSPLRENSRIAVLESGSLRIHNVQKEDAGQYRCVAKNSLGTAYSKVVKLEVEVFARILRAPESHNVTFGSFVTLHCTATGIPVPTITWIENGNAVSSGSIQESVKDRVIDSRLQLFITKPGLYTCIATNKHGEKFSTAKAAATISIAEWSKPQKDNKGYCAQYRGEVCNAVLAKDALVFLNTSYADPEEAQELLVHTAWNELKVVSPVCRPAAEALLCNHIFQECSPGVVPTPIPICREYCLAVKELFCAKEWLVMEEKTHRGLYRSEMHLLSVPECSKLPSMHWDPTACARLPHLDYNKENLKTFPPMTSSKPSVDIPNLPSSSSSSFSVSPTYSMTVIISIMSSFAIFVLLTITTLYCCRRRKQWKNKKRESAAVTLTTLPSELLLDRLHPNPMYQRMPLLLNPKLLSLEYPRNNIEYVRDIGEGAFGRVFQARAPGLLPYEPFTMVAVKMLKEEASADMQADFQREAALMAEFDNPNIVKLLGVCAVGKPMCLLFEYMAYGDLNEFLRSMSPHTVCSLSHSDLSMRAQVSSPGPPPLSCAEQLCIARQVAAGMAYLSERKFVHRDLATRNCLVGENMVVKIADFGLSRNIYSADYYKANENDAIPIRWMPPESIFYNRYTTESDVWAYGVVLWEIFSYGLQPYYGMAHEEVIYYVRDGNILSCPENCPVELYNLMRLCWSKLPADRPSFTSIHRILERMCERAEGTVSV

[22] = molecular target: Serine/threonine-protein kinase Nek9 (Homo sapiens) (UniProt Q8TD19); test: Inhibition of wild-type human partial length NEK9 (P32 to R328 residues) expressed in bacterial expression system assessed as residual activity at 1 uM by Kinomescan method relative to control
[23] = molecular target: Mitogen-activated protein kinase 12 (Homo sapiens) (UniProt P53778); test: Inhibition of wild-type human full length p38-gamma (M1 to L367 residues) expressed in mammalian expression system assessed as residual activity at 1 uM by Kinomescan method relative to control
Mitogen-activated protein kinase 12 (Homo sapiens), sequence (P53778 whole entry, the tested form may be a part): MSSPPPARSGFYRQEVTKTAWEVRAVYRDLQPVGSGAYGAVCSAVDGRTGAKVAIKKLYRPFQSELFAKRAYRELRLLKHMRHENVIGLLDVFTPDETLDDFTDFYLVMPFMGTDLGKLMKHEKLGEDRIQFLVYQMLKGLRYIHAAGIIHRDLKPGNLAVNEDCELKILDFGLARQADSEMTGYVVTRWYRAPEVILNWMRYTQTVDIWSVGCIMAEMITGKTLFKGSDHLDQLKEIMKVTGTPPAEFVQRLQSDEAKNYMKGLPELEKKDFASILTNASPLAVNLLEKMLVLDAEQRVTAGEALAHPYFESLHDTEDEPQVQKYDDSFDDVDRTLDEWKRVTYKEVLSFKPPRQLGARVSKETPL

[24] = molecular target: Serine/threonine-protein kinase Sgk1 (Homo sapiens) (UniProt O00141); test: Inhibition of wild-type human partial length SGK (I60 to L431 residues) expressed in mammalian expression system assessed as residual activity at 1 uM by Kinomescan method relative to control
Serine/threonine-protein kinase Sgk1 (Homo sapiens), sequence (O00141 whole entry, the tested form may be a part): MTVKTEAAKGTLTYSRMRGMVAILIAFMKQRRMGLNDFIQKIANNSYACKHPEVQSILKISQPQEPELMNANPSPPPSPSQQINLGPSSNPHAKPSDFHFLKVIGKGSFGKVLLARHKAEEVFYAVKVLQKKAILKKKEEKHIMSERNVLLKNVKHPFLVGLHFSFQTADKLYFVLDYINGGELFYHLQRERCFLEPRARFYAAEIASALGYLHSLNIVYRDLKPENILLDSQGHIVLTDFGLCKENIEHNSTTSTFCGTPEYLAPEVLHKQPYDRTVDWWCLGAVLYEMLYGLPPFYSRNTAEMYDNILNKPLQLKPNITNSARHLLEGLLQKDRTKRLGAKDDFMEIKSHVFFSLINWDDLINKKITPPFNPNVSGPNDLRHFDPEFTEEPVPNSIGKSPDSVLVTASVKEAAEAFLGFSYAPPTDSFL

[25] = molecular target: Testis-specific serine/threonine-protein kinase 3 (Homo sapiens) (UniProt Q96PN8); test: Inhibition of wild-type human full length TSSK3 (M1 to T268 residues) expressed in mammalian expression system assessed as residual activity at 1 uM by Kinomescan method relative to control
Testis-specific serine/threonine-protein kinase 3 (Homo sapiens), sequence (Q96PN8 whole entry, the tested form may be a part): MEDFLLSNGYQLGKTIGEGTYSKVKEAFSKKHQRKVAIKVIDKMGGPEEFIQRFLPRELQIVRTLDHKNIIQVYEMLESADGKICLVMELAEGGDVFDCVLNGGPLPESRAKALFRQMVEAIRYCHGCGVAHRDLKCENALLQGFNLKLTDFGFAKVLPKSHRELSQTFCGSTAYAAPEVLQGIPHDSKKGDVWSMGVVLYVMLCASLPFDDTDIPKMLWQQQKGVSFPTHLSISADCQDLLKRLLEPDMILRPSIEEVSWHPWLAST

`C=CC(=O)Nc1cc(Nc2cc(-c3cccc(NC(=O)c4ccc(C(C)(C)C)cc4)c3C)cn(C)c2=O)ccc1C(=O)N1CCOCC1` gave a GI50 [1] of 7.1 µM, an Activity [2] of 100% and an Activity [3] of 97%. It also gave an Activity [4] of 98%, an Activity [5] of 100% and an Activity [6] of 100%. For the same compound, the Activity [7] was 94%, the Activity [8] was 89% and the Activity [9] was 95%. The Activity [10] was 82%, the Activity [11] was 100% and the Activity [12] was 100%. For the same compound, the Activity [13] was 100%, the Activity [14] was 99% and the Activity [15] was 100%. For the same compound, the Activity [16] was 93%, the Activity [17] was 100% and the Activity [18] was 91%. It also gave an Activity [19] of 100%, an Activity [20] of 98% and an Activity [21] of 91%. For the same compound, the Activity [22] was 98%, the Activity [23] was 100% and the Activity [24] was 95%. The Activity [25] was 100%.
